Reference: US20230303972A1, “IN VITRO GENETIC DISEASE MODEL CELL AND METHOD FOR PRODUCING THE SAME” (Ricoh Company, Ltd., priority 2022, published 2023)

B1: BDNF: BDNF, which is known for the therapeutic effect for Rett syndrome, added to culture medium (protein, UniProt P23560 19-247, looked up)
Neurotrophic factor BDNF …: APMKEANIRGQGGLAYPGVRTHGTLESVNGPKAGSRGLTSLADTFEHVIEELLDEDQKVRPNEENNKDADLYTSRVMLSSQVPLEPPLLFLLEEYKNYLDAANMSMRVRRHSDPARRGELSVCDSISEWVTAADKKTAVDMSGGTVTVLEKVPVSKGQLKQYFYETKCNPMGYTKEGCRGIDKRHWNSQCRTTQSYVRALTMDSKKRIGWRFIRIDTSCVCTLTIKRGR

Legend:
[1] = tested on: iPS cell-derived differentiated neurocyte alone; test: Neurite morphology of iPS cell-derived neurocytes infected with hMECP2-shRNA lentivirus, single culture; type: cell-based, human; conditions: FIG. 3
Experimental: (§1) Commercially available iPS-cell-derived neurocytes (#EX-SeV-CW50065, Elixirgen Scientific, Inc.) and commercially available human primary astrocytes (#N7805-100, Thermo Fisher Scientific Inc.) were thawed and used to prepare cell suspensions with culture media at 1×10^4 cells/well and 2.5×10^3 cells/well respectively. After the Laminine solution was removed, the suspension was seeded at 50 μL/well, and cocultured. For single culture, 1×10^4 cells/well neurocytes were seeded at 50 μL/well. The culture continued under 5% CO2 at 37° C. in the incubator for 6 weeks. Half the amount of the culture medium was replaced once in 3 to 4 days. The culture medium used was a culture medium specified by Elixirgen Scientific, Inc. for the period of 1 week after the seeding. Then, the culture medium used was Neurobasal Plus supplemented with 2% B-27 Plus, 1% GlutaMAX, 200 μM ascorbic acid, 10% Neurocyte culture medium, and 1% penicillin-streptomycin.
(§2) At 4 days after the cell seeding, virus solutions for expression of the respective shRNAs were added under MOI 0.1 and MOI 1, and allowed to cause infection. MOI was prepared in accordance with only the number of neurocytes. At 7 hours after the infection, the whole amount of culture medium was replaced. To the culture medium in the wells to be rescued, BDNF, which is known for the therapeutic effect for Rett syndrome, was added at 50 ng/mL. […]

[2] = tested on: iPS cell-derived differentiated neurocyte cocultured with human primary astrocyte; test: Neurite morphology of iPS cell-derived neurocytes with hMECP2 knockdown, coculture with human primary astrocytes (phase-contrast observation, BDNF rescue); type: cell-based; conditions: observed Day 11 to Day 42
Experimental: as §1, §2

hMECP2 = test: Ratio of neurocytes with MECP2 knocked down versus amount of lentivirus infection (mCherry fluorescence); type: cell-based, human; conditions: coculture
Excerpt: As a lentivirus vector for transfection, an hMECP2-shRNA lentivirus vector plasmid was used. This plasmid vector contains, downstream of a U6 promoter, a base sequence of SEQ ID NO: 3 ([…]) encoding an shRNA complementary to the 3′ UTR of the hMECP2 gene. Additionally, as a control lentivirus vector, an NC-shRNA lentivirus vector plasmid was used. This plasmid vector contains, downstream of a U6 promoter, a non-mammalian shRNA having a base sequence of SEQ ID NO: 4 ([…]).
At 4 days after the cell seeding, virus solutions for expression of the respective shRNAs were added under MOI 0.1 and MOI 1, and allowed to cause infection. MOI was prepared in accordance with only the number of neurocytes. At 7 hours after the infection, the whole amount of culture medium was replaced. To the culture medium in the wells to be rescued, BDNF, which is known for the therapeutic effect for Rett syndrome, was added at 50 ng/mL.

| Molecule | Knockdown effect on hMECP2 evaluated by number of neurites and length of the neurite [1] | Knockdown effect on hMECP2 evaluated by number of neurites and length of the neurite ([2]; coculture of neurocyte and human primary astrocyte, FIG. 1 a to f) | Ratio of neurocytes with MECP2 knocked down (hMECP2; infection with a large amount of lentivirus, FIG. 5) | Ratio of neurocytes with MECP2 knocked down (hMECP2; infection with a small amount of lentivirus, FIG. 4) | Rescue of the hMECP2 knockdown effect (decrease in number and length of neurites) ([2]; BDNF 50 ng/mL in culture medium, hMECP2-shRNA lentivirus-infected neurocytes cocultured with astrocytes, FIG. 1 g to l) |
| --- | --- | --- | --- | --- | --- |
| hMECP2-shRNA: shRNA complementary to the 3′ UTR of the hMECP2 gene, encoded by SEQ ID NO: 3, expressed from a lentivirus vector (DNA GGGTAGGGCTCTGACAAAGCTTCCCGATTAACTGAAATAAA) | neither a decrease in the number of neurites nor a change in the length of the neurite | chronological decrease in the number of neurites and decrease in the length of the neurite | in substantially all the neurocytes | in a part of the neurocytes |  |
| B1 |  |  |  |  | improved |
